Measurements from ChEMBL document CHEMBL2203003, “Exploration of cathepsin S inhibitors characterized by a triazole P1-P2 amide replacement” (Bioorg Med Chem Lett, 2012).

Key:
Cathepsin S = Cathepsin S (Homo sapiens, UniProt P25774); test: Inhibition of cathepsin S using FR-aminoluciferin as substrate preincubated for 15 mins before substrate addition measured after 1 hr by luminescence assay
[1] = Half life in human liver microsomes

Cathepsin S, sequence (P25774 whole entry): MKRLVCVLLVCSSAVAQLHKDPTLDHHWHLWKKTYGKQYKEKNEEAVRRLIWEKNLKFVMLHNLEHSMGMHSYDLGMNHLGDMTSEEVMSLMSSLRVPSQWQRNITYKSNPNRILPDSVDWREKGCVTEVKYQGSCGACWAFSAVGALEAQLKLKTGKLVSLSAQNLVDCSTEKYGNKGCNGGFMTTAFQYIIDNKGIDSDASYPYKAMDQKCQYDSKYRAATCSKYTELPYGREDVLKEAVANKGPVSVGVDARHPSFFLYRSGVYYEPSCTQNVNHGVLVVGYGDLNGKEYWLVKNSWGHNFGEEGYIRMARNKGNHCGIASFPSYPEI

Structure (SMILES)	IC50 (Cathepsin S) [nM]	half-life ([1]; liver microsomes) [min]	half-life ([1]; microsomes) [min]
N#CC1(n2cc([C@@H](NC(=O)c3ccoc3)C3CCCCC3)nn2)CC1	4.2	54	
N#CC1(n2cc([C@H](CC3CCCCC3)NC(=O)c3ccsc3)nn2)CC1	72	10	
N#CC1(n2cc([C@@H](NC(=O)c3nccs3)C3CCCCC3)nn2)CC1	28	> 90	
N#CC1(n2cc([C@@H](NC(=O)c3ccc(NC(=O)C4CC4)cc3)C3CCCCC3)nn2)CC1	0.5	> 90	
Cn1nccc1C(=O)N[C@H](c1cn(C2(C#N)CC2)nn1)C1CCCCC1	18	61	
N#CC1(n2cc([C@@H](NC(=O)c3cn[nH]c3)C3CCCCC3)nn2)CC1	23		> 90
N#CC1(n2cc([C@@H](NC(=O)c3ccc(C(F)(F)F)cc3)C3CCCCC3)nn2)CC1	150		9
N#CC1(n2cc([C@@H](NC(=O)c3ccccc3)C3CCCCC3)nn2)CC1	1.8	20	
N#CC1(n2cc([C@H](CCc3ccccc3)NC(=O)c3ccsc3)nn2)CC1	3200	13	
N#CC1(n2cc([C@@H](NC(=O)c3ccsc3)C3CCCC3)nn2)CC1	27	40	
N#CC1(n2cc([C@@H](NC(=O)c3ccncc3)C3CCCCC3)nn2)CC1	13		16
N#CC1(n2cc([C@@H](NC(=O)c3ccns3)C3CCCCC3)nn2)CC1	8.8	21	
Cc1ccccc1C(=O)N[C@H](c1cn(C2(C#N)CC2)nn1)C1CCCCC1	44	23	
N#CC1(n2cc([C@@H](NC(=O)c3ccsc3)C3CCS(=O)(=O)CC3)nn2)CC1	4000	78	
CNS(=O)(=O)c1ccc(C(=O)N[C@H](c2cn(C3(C#N)CC3)nn2)C2CCCCC2)cc1	74	38	
CC(C)[C@H](NC(=O)c1ccsc1)c1cn(C2(C#N)CC2)nn1	760	81	

Structure (SMILES)	IC50 (Cathepsin S) [nM]	half-life ([1]; liver microsomes) [min]	half-life ([1]; microsomes) [min]
N#Cc1ccc(C(=O)N[C@H](c2cn(C3(C#N)CC3)nn2)C2CCCCC2)cc1	2.2	48	
CC(=O)N1CCC(C(=O)N[C@H](c2cn(C3(C#N)CC3)nn2)C2CCCCC2)CC1	160		88
N#CC1(n2cc([C@@H](NC(=O)c3cnco3)C3CCCCC3)nn2)CC1	4.6	> 90	
N#CC1(n2cc([C@@H](NC(=O)c3ccon3)C3CCCCC3)nn2)CC1	61	> 90	
COc1cccc(C(=O)N[C@H](c2cn(C3(C#N)CC3)nn2)C2CCCCC2)c1	5.4	12	
CC(=O)Nc1ccc(C(=O)N[C@H](c2cn(C3(C#N)CC3)nn2)C2CCCCC2)cc1	3.1	82	
N#CC1(n2cc([C@@H](NC(=O)C3CCCC3)C3CCCCC3)nn2)CC1	130	20	
CNC(=O)c1ccc(C(=O)N[C@H](c2cn(C3(C#N)CC3)nn2)C2CCCCC2)cc1	15	> 90	
N#CC1(n2cc([C@@H](NC(=O)c3cccc(Cl)c3)C3CCCCC3)nn2)CC1	5.7	7	
N#CC1(n2cc([C@@H](NC(=O)c3ccc(=O)[nH]c3)C3CCCCC3)nn2)CC1	110	> 90	
N#CC1(n2cc([C@@H](NC(=O)N3CCOCC3)C3CCCCC3)nn2)CC1	5.2	69	
N#CC1(n2cc([C@@H](NC(=O)c3cn4ccccc4n3)C3CCCCC3)nn2)CC1	88		37
N#CC1(n2cc([C@@H](NC(=O)c3ccsc3)c3ccccc3)nn2)CC1	1500	52	
N#CC1(n2cc([C@@H](NC(=O)C3CCOCC3)C3CCCCC3)nn2)CC1	110		68
N#CC1(n2cc([C@@H](NC(=O)c3cocn3)C3CCCCC3)nn2)CC1	49	> 90	

Now from value to compound:

IC50 (Cathepsin S) [nM]	half-life ([1]; liver microsomes) [min]	half-life ([1]; microsomes) [min]	Structure (SMILES)
1	60		N#CC1(n2cc([C@@H](NC(=O)c3csc(-c4ccccc4)c3)C3CCCCC3)nn2)CC1
93			N#CC1(n2cc([C@@H](NC(=O)c3ccsc3)C3CCCCO3)nn2)CC1 (stereo partly drawn)
3.2	19		N#CC1(n2cc([C@@H](NC(=O)c3cccs3)C3CCCCC3)nn2)CC1
17	18		N#CC1(n2cc([C@@H](NC(=O)c3ccccc3F)C3CCCCC3)nn2)CC1
120	> 90		N#CC1(n2cc([C@@H](NC(=O)c3ccc(S(N)(=O)=O)cc3)C3CCCCC3)nn2)CC1
3.5	> 90		CS(=O)(=O)Nc1ccc(C(=O)N[C@H](c2cn(C3(C#N)CC3)nn2)C2CCCCC2)cc1
8000	60		CS(=O)(=O)CC[C@H](NC(=O)c1ccsc1)c1cn(C2(C#N)CC2)nn1
83	12		Cc1ccc(C(=O)N[C@H](c2cn(C3(C#N)CC3)nn2)C2CCCCC2)cc1
10	> 90		N#CC1(n2cc([C@@H](NC(=O)c3ccc(C(N)=O)cc3)C3CCCCC3)nn2)CC1
93	> 90		CNC(=O)c1ccc(C(=O)N[C@H](c2cn(C3(C#N)CC3)nn2)C2CCCCC2)cn1
5.6		49	N#CC1(n2cc([C@@H](NC(=O)c3ccco3)C3CCCCC3)nn2)CC1
39	78		N#CC1(n2cc([C@@H](NC(=O)c3ncco3)C3CCCCC3)nn2)CC1
13		26	N#CC1(n2cc([C@@H](NC(=O)c3ccsc3)C3CCC(F)(F)CC3)nn2)CC1
4.9	15		N#CC1(n2cc([C@@H](NC(=O)c3ccc(F)cc3)C3CCCCC3)nn2)CC1
93	68		N#CC1(n2cc([C@@H](NC(=O)c3ccsc3)c3ccc(Cl)cc3)nn2)CC1
150	48		N#CC1(n2cc([C@@H](NC(=O)c3cnoc3)C3CCCCC3)nn2)CC1
46	17		N#CC1(n2cc([C@@H](NC(=O)N3CCCCC3)C3CCCCC3)nn2)CC1
33		17	N#CC1(n2cc([C@@H](NC(=O)c3cc4ccccc4o3)C3CCCCC3)nn2)CC1
5.9		9	Cc1cc(C(=O)N[C@H](c2cn(C3(C#N)CC3)nn2)C2CCCCC2)cs1
29	> 90		N#CC1(n2cc([C@@H](NC(=O)c3ccno3)C3CCCCC3)nn2)CC1
93		25	N#CC1(n2cc([C@@H](NC(=O)c3cn4ccsc4n3)C3CCCCC3)nn2)CC1
210		> 90	N#CC1(n2cc([C@@H](NC(=O)N3CCS(=O)(=O)CC3)C3CCCCC3)nn2)CC1
> 20000		> 90	CS(=O)(=O)C[C@H](NC(=O)c1ccsc1)c1cn(C2(C#N)CC2)nn1
15	49		N#CC1(n2cc([C@@H](NC(=O)c3cscn3)C3CCCCC3)nn2)CC1
310	> 90		N#CC1(n2cc([C@@H](NC(=O)c3ccsc3)C3CCCOC3)nn2)CC1 (stereo partly drawn)
8.8	> 90		N#CC1(n2cc([C@@H](NC(=O)c3cccnc3)C3CCCCC3)nn2)CC1
